Experimental data taken from ChEMBL document CHEMBL1151930, “Physicochemical determinants of human renal clearance” (J Med Chem, 2009).

Tests used:
[1] = Total body clearance in human; details: in vivo
clinical = details: human, in vivo

CCS(=O)(=O)CCn1c([N+](=O)[O-])cnc1C [TINIDAZOLE]
clearance [1]: 0.6 mL/min/kg | CL renal (clinical): 0.11 mL/min/kg

Nc1nc2c(c(=O)[nH]1)N(C=O)C(CNc1ccc(C(=O)N[C@@H](CCC(=O)O)C(=O)O)cc1)CN2 (stereo not given in full) [LEUCOVORIN]
clearance [1]: 5.3 mL/min/kg | CL renal (clinical): 0.8 mL/min/kg

O=C(NCCNCC(O)COc1ccc(O)cc1)N1CCOCC1 (stereo not given) [XAMOTEROL]
clearance [1]: 3 mL/min/kg | CL renal (clinical): 1.86 mL/min/kg

N=C(N)NC(=O)Cc1c(Cl)cccc1Cl [GUANFACINE]
clearance [1]: 5.9 mL/min/kg | CL renal (clinical): 3 mL/min/kg

CC1(C)S[C@@H]2[C@H](NC(=O)[C@H](C(=O)O)c3ccsc3)C(=O)N2[C@H]1C(=O)O [TICARCILLIN]
clearance [1]: 2.2 mL/min/kg | CL renal (clinical): 1.9 mL/min/kg

CCCC1O[C@@H]2C[C@H]3[C@@H]4CCC5=CC(=O)C=C[C@]5(C)[C@H]4[C@@H](O)C[C@]3(C)[C@]2(C(=O)CO)O1 (stereo not given in full) [BUDESONIDE]
clearance [1]: 20 mL/min/kg | CL renal (clinical): 1 mL/min/kg

CN[C@@H]1[C@@H](O)[C@@H](O[C@@H]2[C@@H](O)[C@H](O[C@H]3OC(CN)=CC[C@H]3N)[C@@H](N)C[C@H]2N)OC[C@]1(C)O [SISOMICIN]
clearance [1]: 1 mL/min/kg | CL renal (clinical): 0.76 mL/min/kg

CN1C(=O)C(O)N=C(c2ccccc2Cl)c2cc(Cl)ccc21 (stereo not given) [LORMETAZEPAM]
clearance [1]: 4 mL/min/kg

CCCCC/C=C\CCC(=O)N[C@H]1[C@H](Oc2c3cc4cc2Oc2ccc(cc2Cl)[C@@H](O[C@@H]2O[C@H](CO)[C@@H](O)[C@H](O)[C@H]2NC(C)=O)[C@@H]2NC(=O)[C@H](NC(=O)[C@@H]4NC(=O)[C@H]4NC(=O)[C@@H](Cc5ccc(c(Cl)c5)O3)NC(=O)[C@H](N)c3ccc(O)c(c3)Oc3cc(O)cc4c3)c3ccc(O)c(c3)-c3c(O[C@H]4O[C@H](CO)[C@@H](O)[C@H](O)[C@@H]4O)cc(O)cc3[C@@H](C(=O)O)NC2=O)O[C@H](CO)[C@@H](O)[C@@H]1O [TEICOPLANIN A2-1]
clearance [1]: 0.17 mL/min/kg | CL renal (clinical): 0.17 mL/min/kg

CN1CCCC(n2nc(Cc3ccc(Cl)cc3)c3ccccc3c2=O)CC1 (stereo not given) [AZELASTINE]
clearance [1]: 9 mL/min/kg | CL renal (clinical): 0.18 mL/min/kg

O=P1(N(CCCl)CCCl)NCCCO1 (stereo not given) [CYCLOPHOSPHAMIDE ANHYDROUS]
clearance [1]: 1.1 mL/min/kg

N[C@@H](Cc1ccc(N(CCCl)CCCl)cc1)C(=O)O
clearance [1]: 7 mL/min/kg | CL renal (clinical): 0.91 mL/min/kg

C=CC[C@@H]1/C=C(\C)C[C@H](C)C[C@H](OC)[C@H]2O[C@@](O)(C(=O)C(=O)N3CCCC[C@H]3C(=O)O[C@H](/C(C)=C/[C@@H]3CC[C@@H](O)[C@H](OC)C3)[C@H](C)[C@@H](O)CC1=O)[C@H](C)C[C@@H]2OC [TACROLIMUS ANHYDROUS]
clearance [1]: 0.7 mL/min/kg | CL renal (clinical): 0.01 mL/min/kg

CC1(C)S[C@@H]2[C@H](NC(=O)[C@H](NC(=O)N3CCN(S(C)(=O)=O)C3=O)c3ccccc3)C(=O)N2[C@H]1C(=O)O [MEZLOCILLIN]
clearance [1]: 5.23 mL/min/kg | CL renal (clinical): 2.4 mL/min/kg

CC(=O)Nc1ccc(OCC(O)CNC(C)C)cc1 (stereo not given) [PRACTOLOL]
clearance [1]: 2 mL/min/kg | CL renal (clinical): 1.7 mL/min/kg

CCC1=C[C@@H]2CN(C1)Cc1c([nH]c3ccccc13)[C@@](C(=O)OC)(c1cc3c(cc1OC)N(C)[C@H]1[C@@](O)(C(=O)OC)[C@H](OC(C)=O)[C@]4(CC)C=CCN5CC[C@]31[C@@H]54)C2 [VINORELBINE]
clearance [1]: 20 mL/min/kg | CL renal (clinical): 2.2 mL/min/kg

CC[C@@]1(O)C(=O)OCc2c1cc1n(c2=O)Cc2c-1nc1ccccc1c2N
clearance [1]: 6.5 mL/min/kg | CL renal (clinical): 0.56 mL/min/kg

Cc1onc(-c2c(Cl)cccc2Cl)c1C(=O)N[C@@H]1C(=O)N2[C@@H]1SC(C)(C)[C@@H]2C(=O)O [DICLOXACILLIN]
clearance [1]: 2 mL/min/kg | CL renal (clinical): 1.2 mL/min/kg

CCN1CCCC1CNC(=O)c1cc(S(=O)(=O)CC)c(N)cc1OC (stereo not given) [AMISULPRIDE]
clearance [1]: 7.8 mL/min/kg | CL renal (clinical): 4.4 mL/min/kg

CC1=NS(=O)(=O)c2cc(Cl)ccc2N1 [DIAZOXIDE]
clearance [1]: 0.06 mL/min/kg | CL renal (clinical): 0.06 mL/min/kg

C=CC1=C(C(=O)O)N2C(=O)[C@@H](NC(=O)/C(=N\OCC(=O)O)c3csc(N)n3)[C@H]2SC1 [CEFIXIME]
clearance [1]: 1 mL/min/kg | CL renal (clinical): 0.42 mL/min/kg

CC[C@H]1OC(=O)[C@H](C)[C@@H](O[C@H]2C[C@@](C)(OC)[C@@H](O)[C@H](C)O2)[C@H](C)[C@@H](O[C@@H]2O[C@H](C)C[C@H](N(C)C)[C@H]2O)[C@](C)(O)C[C@@H](C)CN(C)[C@H](C)[C@@H](O)[C@]1(C)O [AZITHROMYCIN]
clearance [1]: 10 mL/min/kg | CL renal (clinical): 0.45 mL/min/kg

O=[N+]([O-])O[C@@H]1CO[C@H]2[C@@H]1OC[C@@H]2O [ISOSORBIDE MONONITRATE]
clearance [1]: 2 mL/min/kg | CL renal (clinical): 0.1 mL/min/kg

Cc1cc(NC(=O)C2=C(O)c3ccccc3S(=O)(=O)N2C)no1 [ISOXICAM]
clearance [1]: 0.07 mL/min/kg

Nc1nc(=O)[nH]cc1F [FLUCYTOSINE]
clearance [1]: 2 mL/min/kg | CL renal (clinical): 1.98 mL/min/kg

CCC1=C(C)CN(C(=O)NCCc2ccc(S(=O)(=O)NC(=O)N[C@H]3CC[C@H](C)CC3)cc2)C1=O [GLIMEPIRIDE]
clearance [1]: 0.5 mL/min/kg

Cn1nnnc1SCC1=C(C(=O)O)N2C(=O)[C@@H](NC(=O)[C@H](O)c3ccccc3)[C@H]2SC1 [CEFAMANDOLE]
CL renal (clinical): 2.7 mL/min/kg

CN1CCC[C@H]1c1cccnc1 [NICOTINE]
CL renal (clinical): 3 mL/min/kg

CCC[C@@H]1C[C@@H](C(=O)N[C@@H]([C@H]2O[C@H](SC)[C@H](O)[C@@H](O)[C@H]2O)[C@H](C)Cl)N(C)C1 [CLINDAMYCIN]
CL renal (clinical): 0.62 mL/min/kg

C[C@H]1C[C@H]2[C@@H]3CCC4=CC(=O)C=C[C@]4(C)[C@@]3(F)[C@@H](O)C[C@]2(C)[C@@]1(O)C(=O)CO [BETAMETHASONE]
CL renal (clinical): 0.14 mL/min/kg

NCC1(CC(=O)O)CCCCC1 [GABAPENTIN]
CL renal (clinical): 1.7 mL/min/kg

OC(Cn1cncn1)(Cn1cncn1)c1ccc(F)cc1F [FLUCONAZOLE]
CL renal (clinical): 0.23 mL/min/kg

CCN(CC)CCNC(=O)c1ccc(NS(C)(=O)=O)cc1 [SEMATILIDE]
CL renal (clinical): 3.5 mL/min/kg

Nc1nc(NC2CC2)c2ncn([C@H]3C=C[C@@H](CO)C3)c2n1 [ABACAVIR]
CL renal (clinical): 0.15 mL/min/kg

O=C1c2c(O)ccc(O)c2C(=O)c2c(NCCNCCO)ccc(NCCNCCO)c21 [MITOXANTRONE]
CL renal (clinical): 0.5 mL/min/kg

CCOc1ccccc1OC(c1ccccc1)C1CNCCO1 (stereo not given) [REBOXETINE]
CL renal (clinical): 0.04 mL/min/kg

CC1(C)S[C@@H]2[C@H](NC(=O)C(C(=O)O)c3ccccc3)C(=O)N2[C@H]1C(=O)O (stereo not given in full) [CARBENICILLIN]
CL renal (clinical): 1.9 mL/min/kg

CCN(CC)CCNC(=O)c1cc(Cl)c(N)cc1OC [METOCLOPRAMIDE]
CL renal (clinical): 1.14 mL/min/kg

O=C1CN=C(c2ccccc2)c2cc([N+](=O)[O-])ccc2N1 [NITRAZEPAM]
CL renal (clinical): 0.01 mL/min/kg

NS(=O)(=O)c1cc(C(=O)O)cc(N2CCCC2)c1Oc1ccccc1 [PIRETANIDE]
CL renal (clinical): 1.05 mL/min/kg

CC[C@H](C)C(=O)O[C@H]1C[C@@H](C)C=C2C=C[C@H](C)[C@H](CC[C@@H]3C[C@@H](O)CC(=O)O3)[C@H]21 [LOVASTATIN]
CL renal (clinical): 0.72 mL/min/kg

COc1ccc(C(CN(C)C)C2(O)CCCCC2)cc1 (stereo not given) [VENLAFAXINE]
CL renal (clinical): 0.64 mL/min/kg

CCCNC(=O)NS(=O)(=O)c1ccc(Cl)cc1 [CHLORPROPAMIDE]
CL renal (clinical): 0.01 mL/min/kg

Cc1nnc2n1-c1ccc(Cl)cc1C(c1ccccc1)=NC2 [ALPRAZOLAM]
CL renal (clinical): 0.15 mL/min/kg

O=C1CN=C(c2ccccc2Cl)c2cc([N+](=O)[O-])ccc2N1 [CLONAZEPAM]
CL renal (clinical): 0.01 mL/min/kg

Nc1ccc(S(=O)(=O)Nc2ncccn2)cc1 [SULFADIAZINE]
CL renal (clinical): 0.34 mL/min/kg

Cc1cn([C@H]2C[C@H](N=[N+]=[N-])[C@@H](CO)O2)c(=O)[nH]c1=O [ZIDOVUDINE]
CL renal (clinical): 5.67 mL/min/kg

CN/C(=N/CCSCc1nc[nH]c1C)NC#N [CIMETIDINE]
CL renal (clinical): 7.9 mL/min/kg

N#Cc1ccc(C(c2ccc(C#N)cc2)n2cncn2)cc1 [LETROZOLE]
CL renal (clinical): 0.02 mL/min/kg

CCOC(=O)Nc1ccc(NCc2ccc(F)cc2)nc1N [FLUPIRTINE]
CL renal (clinical): 0.27 mL/min/kg

CO/N=C(\C(=O)N[C@@H]1C(=O)N2C(C(=O)O)=C(CSc3nc(=O)c(=O)[nH]n3C)CS[C@H]12)c1csc(N)n1 [CEFTRIAXONE]
CL renal (clinical): 0.12 mL/min/kg

C[C@@H]([C@@H](O)c1ccc(O)cc1)N1CCC(O)(c2ccccc2)CC1 [TRAXOPRODIL]
CL renal (clinical): 1.92 mL/min/kg

COc1ccc(C(=O)Nc2ccccc2CCC2CCCCN2C)cc1 (stereo not given) [ENCAINIDE]
CL renal (clinical): 0.78 mL/min/kg

CN1Cc2c(N)cccc2C(c2ccccc2)C1 (stereo not given) [NOMIFENSINE]
CL renal (clinical): 12.5 mL/min/kg

Nc1cc(-c2ccncc2)c[nH]c1=O [INAMRINONE]
CL renal (clinical): 3.1 mL/min/kg

CN1C2CCCC1CC(NC(=O)c1nn(C)c3ccccc13)C2 (stereo not given) [GRANISETRON]
CL renal (clinical): 1 mL/min/kg

CN(C)CCC=C1c2ccccc2CCc2ccccc21 [AMITRIPTYLINE]
CL renal (clinical): 0.12 mL/min/kg

Cc1[nH]c(=O)c(C#N)cc1-c1ccncc1 [MILRINONE]
CL renal (clinical): 5 mL/min/kg

CO/N=C(\C(=O)N[C@@H]1C(=O)N2C(C(=O)O)=C(C)CS[C@H]12)c1csc(N)n1
CL renal (clinical): 1.5 mL/min/kg

Nc1nc2c(ncn2CCC(CO)CO)c(=O)[nH]1 [PENCICLOVIR]
CL renal (clinical): 6.7 mL/min/kg

COc1ccc2c3c1O[C@H]1[C@@H](O)C=C[C@H]4[C@@H](C2)N(C)CC[C@@]341 [CODEINE]
CL renal (clinical): 1.7 mL/min/kg

Cn1c(=O)c2c(ncn2C)n(C)c1=O [CAFFEINE]
CL renal (clinical): 0.02 mL/min/kg

O=C(O)[C@H]1/C(=C/CO)O[C@@H]2CC(=O)N21 [CLAVULANIC ACID]
CL renal (clinical): 1.33 mL/min/kg

CC[C@]1(O)C[C@@H]2CN(CCc3c([nH]c4ccccc34)[C@@](C(=O)OC)(c3cc4c(cc3OC)N(C)[C@H]3[C@@](O)(C(=O)OC)[C@H](OC(C)=O)[C@]5(CC)C=CCN6CC[C@]43[C@@H]65)C2)C1 [VINBLASTINE]
CL renal (clinical): 2.64 mL/min/kg

Nc1ccc(S(=O)(=O)c2ccc(N)cc2)cc1 [DAPSONE]
CL renal (clinical): 0.05 mL/min/kg

O=P(O)(O)C(O)(Cc1cccnc1)P(=O)(O)O [RISEDRONIC ACID]
CL renal (clinical): 1.31 mL/min/kg

CN(C)[C@@H]1C(O)=C(C(N)=O)C(=O)[C@@]2(O)C(O)=C3C(=O)c4c(O)cccc4[C@@](C)(O)[C@H]3C[C@@H]12 [TETRACYCLINE]
CL renal (clinical): 0.9 mL/min/kg

CC(=O)Nc1c(I)c(C(=O)O)c(I)c(N(C)C(C)=O)c1I [METRIZOIC ACID]
CL renal (clinical): 2.53 mL/min/kg

COCCCOc1ccnc(C[S+]([O-])c2nc3ccccc3[nH]2)c1C (stereo not given) [RABEPRAZOLE]
clearance [1]: 4 mL/min/kg

C[C@@H]1CN(c2c(F)c(N)c3c(=O)c(C(=O)O)cn(C4CC4)c3c2F)C[C@H](C)N1 [SPARFLOXACIN]
CL renal (clinical): 0.4 mL/min/kg

O=c1[nH]cc(F)c(=O)[nH]1 [FLUOROURACIL]
CL renal (clinical): 1.1 mL/min/kg

CSc1ccc(C(=O)c2[nH]c(=O)[nH]c2C)cc1 [ENOXIMONE]
CL renal (clinical): 0.1 mL/min/kg

COc1ccc2[nH]c([S+]([O-])Cc3ncc(C)c(OC)c3C)nc2c1 (stereo not given) [OMEPRAZOLE]
CL renal (clinical): 0.08 mL/min/kg
